Common to all, as to type: functional
Holding throughout (conditions): read-out: GI

Experiment [1] has as its system Botrytis cinerea. In words: Antifungal activity against Botryotinia fuckeliana assessed as growth inhibition at 10 mg/L.
Experiment [2] deals with Sclerotinia sclerotiorum. In words: Antifungal activity against Sclerotinia sclerotiorum assessed as growth inhibition at 10 mg/L.
The test system of experiment [3] is Botrytis cinerea. As to the kind of experiment: Antifungal activity against Botryotinia fuckeliana assessed as growth inhibition at 50 mg/L.
A further experiment concerns Pyricularia oryzae. In words: Antifungal activity against Magnaporthe oryzae assessed as growth inhibition at 50 mg/L.
The next experiment concerns Fusarium graminearum. As to the kind of experiment: Antifungal activity against Fusarium graminearum assessed as growth inhibition at 50 mg/L.
Experiment [4] relates to Sclerotinia sclerotiorum. As to the kind of experiment: Antifungal activity against Sclerotinia sclerotiorum assessed as growth inhibition at 50 mg/L.

On to `CSc1nn(-c2ccccc2)c2nc3n(-c4cccc(Cl)c4)cnn3c(=O)c12`, for which the inhibition of growth at 10 µg/mL in the experiment with Botrytis cinerea [1] amounted to 71%; in the experiment on Sclerotinia sclerotiorum [2], 82%. Besides, the inhibition of growth at 50 µg/mL was found to be 99% with Botrytis cinerea [3], 57% in the experiment with Pyricularia oryzae, 74% with Fusarium graminearum and 100% with Sclerotinia sclerotiorum [4].
As to `CSc1nn(-c2ccccc2)c2nc3n(-c4cccc(C)c4)cnn3c(=O)c12`, the inhibition of growth at 10 µg/mL in the experiment with Botrytis cinerea [1] came out at 74%; in the experiment on Sclerotinia sclerotiorum [2], 73%. Besides, the inhibition of growth at 50 µg/mL stood at 97% in the experiment on Botrytis cinerea [3], 70% in the experiment with Pyricularia oryzae, 50% with Fusarium graminearum and 98% in the experiment on Sclerotinia sclerotiorum [4].
Regarding `CSc1nn(-c2ccccc2)c2nc(Nc3ccc(F)cc3)n(N)c(=O)c12`, the inhibition of growth at 10 µg/mL was 9% in the experiment with Botrytis cinerea [1] and 72% with Sclerotinia sclerotiorum [2]. Also, the inhibition of growth at 50 µg/mL with Botrytis cinerea [3] was found to be 45%; with Pyricularia oryzae it was 43%; in the experiment with Fusarium graminearum, 20%; in the experiment with Sclerotinia sclerotiorum [4] it was 94%.
As for `CSc1nn(-c2ccccc2)c2nc(Nc3ccccc3F)n(N)c(=O)c12`, the inhibition of growth at 10 µg/mL with Botrytis cinerea [1] amounted to 69%; with Sclerotinia sclerotiorum [2], 73%. Moreover, the inhibition of growth at 50 µg/mL was 93% in the experiment on Botrytis cinerea [3], 62% in the experiment with Pyricularia oryzae, 51% with Fusarium graminearum and 97% with Sclerotinia sclerotiorum [4].
In the case of `CSc1nn(-c2ccccc2)c2nc(Nc3cccc(F)c3)n(N)c(=O)c12`, the inhibition of growth at 10 µg/mL is 56% with Botrytis cinerea [1] and 75% in the experiment on Sclerotinia sclerotiorum [2]. Also, the inhibition of growth at 50 µg/mL with Botrytis cinerea [3] is 87%; in the experiment with Pyricularia oryzae it was 43%; in the experiment on Fusarium graminearum it was 43%; with Sclerotinia sclerotiorum [4], 96%.
As for `Nn1c(Nc2ccc(F)cc2)nc2c(c(SCc3ccccc3)nn2-c2ccccc2)c1=O`, the inhibition of growth at 10 µg/mL amounted to 12% with Botrytis cinerea [1] and 52% in the experiment with Sclerotinia sclerotiorum [2]. In addition, the inhibition of growth at 50 µg/mL in the experiment with Botrytis cinerea [3] stood at 55%; in the experiment with Pyricularia oryzae, 29%; in the experiment with Fusarium graminearum, 34%; in the experiment with Sclerotinia sclerotiorum [4], 83%.
With `Nn1c(Nc2ccccc2F)nc2c(c(SCc3ccccc3)nn2-c2ccccc2)c1=O`, the inhibition of growth at 10 µg/mL worked out at 18% in the experiment on Botrytis cinerea [1] and 33% in the experiment on Sclerotinia sclerotiorum [2]. Also, the inhibition of growth at 50 µg/mL was 64% in the experiment with Botrytis cinerea [3], 14% in the experiment with Pyricularia oryzae, 40% in the experiment with Fusarium graminearum and 71% in the experiment with Sclerotinia sclerotiorum [4].
As to `Nn1c(Nc2cccc(F)c2)nc2c(c(SCc3ccccc3)nn2-c2ccccc2)c1=O`, the inhibition of growth at 10 µg/mL came out at 20% in the experiment with Botrytis cinerea [1] and 40% in the experiment with Sclerotinia sclerotiorum [2]. For the same compound, the inhibition of growth at 50 µg/mL was determined as 69% in the experiment on Botrytis cinerea [3], 14% in the experiment with Pyricularia oryzae, 46% with Fusarium graminearum and 82% in the experiment on Sclerotinia sclerotiorum [4].
As for `CSc1nn(-c2ccccc2)c2nc(Nc3ccccc3)n(N)c(=O)c12`, the values for the inhibition of growth at 10 µg/mL in the experiment on Botrytis cinerea [1] and in the experiment with Sclerotinia sclerotiorum [2] were 3% and 51%, respectively. The inhibition of growth at 50 µg/mL in the experiment with Botrytis cinerea [3] was 13%; with Pyricularia oryzae it was 36%; with Fusarium graminearum it was 14%; in the experiment with Sclerotinia sclerotiorum [4] it was 84%.
Consider `Nn1c(Nc2ccccc2)nc2c(c(SCc3ccccc3)nn2-c2ccccc2)c1=O`, for which the inhibition of growth at 10 µg/mL in the experiment on Botrytis cinerea [1] was found to be 12%; in the experiment on Sclerotinia sclerotiorum [2], 31%. Further, the inhibition of growth at 50 µg/mL in the experiment on Botrytis cinerea [3] turned out to be 60%; in the experiment on Pyricularia oryzae, 50%; with Fusarium graminearum, 29%; in the experiment with Sclerotinia sclerotiorum [4], 72%.
`CSc1nn(-c2ccccc2)c2nc(Nc3cccc(Cl)c3)n(N)c(=O)c12`: the results for the inhibition of growth at 10 µg/mL in the experiment on Botrytis cinerea [1] and with Sclerotinia sclerotiorum [2] were 73% and 76%, respectively. Further, the inhibition of growth at 50 µg/mL in the experiment on Botrytis cinerea [3] came to 99%; in the experiment on Pyricularia oryzae, 96%; with Fusarium graminearum, 57%; in the experiment with Sclerotinia sclerotiorum [4], 98%.
Take `CSc1nn(-c2ccccc2)c2nc(Nc3cccc(C)c3)n(N)c(=O)c12`: the inhibition of growth at 10 µg/mL was 36% in the experiment with Botrytis cinerea [1] and 52% in the experiment with Sclerotinia sclerotiorum [2]. The inhibition of growth at 50 µg/mL in the experiment on Botrytis cinerea [3] came to 71%; with Pyricularia oryzae it was 14%; in the experiment with Fusarium graminearum it was 46%; in the experiment with Sclerotinia sclerotiorum [4] it was 86%.
Turning to `CSc1nn(-c2ccccc2)c2nc3n(-c4ccc(F)cc4)cnn3c(=O)c12`, the inhibition of growth at 10 µg/mL is 45% in the experiment with Botrytis cinerea [1] and 70% with Sclerotinia sclerotiorum [2]. Also, the inhibition of growth at 50 µg/mL was 71% with Botrytis cinerea [3], 9% in the experiment with Pyricularia oryzae, 49% in the experiment on Fusarium graminearum and 93% in the experiment with Sclerotinia sclerotiorum [4].
`CSc1nn(-c2ccccc2)c2nc3n(-c4ccccc4F)cnn3c(=O)c12`: the results for the inhibition of growth at 10 µg/mL in the experiment with Botrytis cinerea [1] and with Sclerotinia sclerotiorum [2] were 31% and 19%, respectively. Besides, the inhibition of growth at 50 µg/mL in the experiment on Botrytis cinerea [3] turned out to be 60%; in the experiment with Pyricularia oryzae, 5%; with Fusarium graminearum, 26%; in the experiment with Sclerotinia sclerotiorum [4] it was 50%.
For `CSc1nn(-c2ccccc2)c2nc3n(-c4cccc(F)c4)cnn3c(=O)c12`, the results for the inhibition of growth at 10 µg/mL in the experiment with Botrytis cinerea [1] and in the experiment with Sclerotinia sclerotiorum [2] were 70% and 83%, respectively. For the same compound, the inhibition of growth at 50 µg/mL in the experiment with Botrytis cinerea [3] is 91%; in the experiment on Pyricularia oryzae, 29%; with Fusarium graminearum it was 74%; in the experiment with Sclerotinia sclerotiorum [4] it was 100%.
As to `O=c1c2c(SCc3ccccc3)nn(-c3ccccc3)c2nc2n(-c3ccc(F)cc3)cnn12`, the inhibition of growth at 10 µg/mL in the experiment on Botrytis cinerea [1] stood at 30%; in the experiment with Sclerotinia sclerotiorum [2], 32%. Also, the inhibition of growth at 50 µg/mL in the experiment with Botrytis cinerea [3] is 67%; in the experiment on Pyricularia oryzae it was 43%; in the experiment with Fusarium graminearum, 37%; in the experiment on Sclerotinia sclerotiorum [4] it was 75%.
With `O=c1c2c(SCc3ccccc3)nn(-c3ccccc3)c2nc2n(-c3ccccc3F)cnn12`, the results for the inhibition of growth at 10 µg/mL with Botrytis cinerea [1] and in the experiment with Sclerotinia sclerotiorum [2] were 27% and 75%, respectively. Moreover, the inhibition of growth at 50 µg/mL was found to be 60% in the experiment with Botrytis cinerea [3], 14% with Pyricularia oryzae, 37% in the experiment with Fusarium graminearum and 96% with Sclerotinia sclerotiorum [4].
Regarding `O=c1c2c(SCc3ccccc3)nn(-c3ccccc3)c2nc2n(-c3cccc(F)c3)cnn12`, the inhibition of growth at 10 µg/mL with Botrytis cinerea [1] and in the experiment with Sclerotinia sclerotiorum [2] was 5% throughout. Further, the inhibition of growth at 50 µg/mL in the experiment on Botrytis cinerea [3] was 29%; with Pyricularia oryzae, 0%; with Fusarium graminearum, 34%; with Sclerotinia sclerotiorum [4], 29%.
In the case of `CSc1nn(-c2ccccc2)c2nc3n(-c4ccccc4)cnn3c(=O)c12`, the inhibition of growth at 10 µg/mL came to 70% with Botrytis cinerea [1] and 83% with Sclerotinia sclerotiorum [2]. For the same compound, the inhibition of growth at 50 µg/mL in the experiment with Botrytis cinerea [3] came to 99%; with Pyricularia oryzae it was 80%; with Fusarium graminearum, 66%; in the experiment on Sclerotinia sclerotiorum [4], 100%.
Take `O=c1c2c(SCc3ccccc3)nn(-c3ccccc3)c2nc2n(-c3ccccc3)cnn12`: the inhibition of growth at 10 µg/mL worked out at 49% with Botrytis cinerea [1] and 67% in the experiment with Sclerotinia sclerotiorum [2]. Also, the inhibition of growth at 50 µg/mL in the experiment on Botrytis cinerea [3] came out at 73%; in the experiment on Pyricularia oryzae, 29%; with Fusarium graminearum it was 60%; in the experiment on Sclerotinia sclerotiorum [4] it was 93%.
As for `c1ccc2[nH]c(-c3cscn3)nc2c1` [THIABENDAZOLE], the inhibition of growth at 50 µg/mL in the experiment with Botrytis cinerea [3] amounted to 100%; in the experiment on Pyricularia oryzae, 87%; in the experiment on Fusarium graminearum, 100%; with Sclerotinia sclerotiorum [4], 100%.

Source of the values: ChEMBL document CHEMBL3046003, “Synthesis and antifungal activities of novel 5-amino-6-arylamino-1H-pyrazolo[3,4-d]pyrimidin-4(5H)-one derivatives” (2008).
